Experimental data: PubChem BioAssay (NCI)
“And” between values parts separate entries of the source, which are not always exact repeats. Equal entries are not always repeated.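 In this assay, cells in 96-well plates receive the compound at five concentrations for 48 hours. Endpoints are linearly interpolated between the surrounding concentrations. Here, GI50 denotes the concentration required for 50% inhibition of growth. TGI: total growth inhibition.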

Columns and labels:
Assay in all cases: growth of human tumour cells (NCI), 48 h
RXF 393 renal = tested on: RXF 393 renal
NCI-H23 lung = tested on: NCI-H23 lung
SF-295 CNS = tested on: SF-295 CNS
HCT-116 colon = tested on: HCT-116 colon
U251 CNS = tested on: U251 CNS
OVCAR-8 ovarian = tested on: OVCAR-8 ovarian
LOX IMVI melanoma = tested on: LOX IMVI melanoma
SK-OV-3 ovarian = tested on: SK-OV-3 ovarian
NCI-H460 lung = tested on: NCI-H460 lung
HOP-92 NSCLC = tested on: HOP-92 NSCLC

Row | SMILES | GI50 (RXF 393 renal) | TGI (RXF 393 renal) | GI50 (NCI-H23 lung) | TGI (NCI-H23 lung) | GI50 (SF-295 CNS) | TGI (SF-295 CNS) | GI50 (HCT-116 colon) | TGI (HCT-116 colon) | GI50 (U251 CNS) | TGI (U251 CNS) | GI50 (OVCAR-8 ovarian) | TGI (OVCAR-8 ovarian) | GI50 (LOX IMVI melanoma) | TGI (LOX IMVI melanoma) | GI50 (SK-OV-3 ovarian) | TGI (SK-OV-3 ovarian) | GI50 (NCI-H460 lung) | TGI (NCI-H460 lung) | GI50 (HOP-92 NSCLC) | TGI (HOP-92 NSCLC)
1 | O=C1/C(=C/c2cccc([N+](=O)[O-])c2)COc2ccc(O)c(O)c21 | 1.28 µM | 2.69 µM | 1.75 µM | 3.95 µM | 3.27 µM | 11.2 µM | 1.14 µM | 2.7 µM | 1.17 µM | 2.64 µM | 2.35 µM | 13.3 µM | 0.499 µM | 1.86 µM | 3.41 µM | 12.6 µM | 2.08 µM | 4.97 µM | 2.24 µM | 8.22 µM
2 | CC/C=C\C[C@H](O)C/C=C1/C(=O)C=C[C@@H]1C/C=C\CCCC(=O)NC(C)C | 2.14 µM | 3.94 µM | 2.33 µM | 6.09 µM | 2.42 µM | 5.69 µM | 1.73 µM | 3.59 µM | 2.61 µM | 7.08 µM | 3.04 µM | 10.7 µM | 1.06 µM | 2.5 µM | 4.57 µM | 14.8 µM | 2.43 µM | 5.79 µM | 2.75 µM | 6.08 µM
3 | COC(=O)C1(C)C=C(Nc2ccccc2)C(=O)N1c1ccccc1 (centres undefined) | – | > 100 µM | – | > 100 µM | – | > 100 µM | – | > 100 µM | – | > 100 µM | – | > 100 µM | – | > 100 µM | – | > 100 µM | – | > 100 µM | – | > 100 µM
4 | COc1cccc(-c2nn(-c3ccccc3)cc2-c2ccnc(NCCNS(=O)(=O)c3ccc(Cl)cc3)c2)c1 | 5.03 µM | > 100 µM | 4.32 µM | > 100 µM | 3.89 µM | 57.5 µM | 4.63 µM | > 100 µM | 5.89 µM | > 100 µM | 7.54 µM | > 100 µM | 3.12 µM | > 100 µM | 4.43 µM | > 100 µM | 5.15 µM | > 100 µM | 2.46 µM | 9.48 µM
5 | O=C(Nc1ccc(Cl)c(C(F)(F)F)c1)C(=O)C(C(=O)/C=C/c1ccccc1)C1OC(=O)c2ccccc21 (centres undefined) | – | > 100 µM | – | > 100 µM | – | > 100 µM | – | > 100 µM | – | > 100 µM | – | > 100 µM | – | > 100 µM | – | > 100 µM | – | > 100 µM | – | > 100 µM
6 | Cc1ccc(C)c(NC(=O)C(=O)C2C(=O)C3=C(CC2(C)C)Nc2ccccc2S3)c1 (centres undefined) | – | > 100 µM | – | > 100 µM | – | > 100 µM | – | > 100 µM | – | > 100 µM | – | > 100 µM | – | > 100 µM | – | > 100 µM | – | > 100 µM | – | > 100 µM
7 | Cn1c(C(N)=O)cc2c1-c1nc(Nc3ccccc3)ncc1CCC2 | 1.44 µM | 5.34 µM | 4.91 µM | 32.9 µM | 4.65 µM | > 100 µM | 3.52 µM | 41.7 µM | 3.55 µM | > 100 µM | 7.06 µM | 69.3 µM | 4.86 µM | 24.8 µM | 3.51 µM | 20.8 µM | 4.2 µM | > 100 µM | 1.47 µM | 8.32 µM
8 | O=C(O)c1ccc(NC(=O)C2C(=O)C(=O)N(c3ccc(C(=O)O)cc3)C2=O)cc1 (centres undefined) | – | > 100 µM | – | > 100 µM | – | > 100 µM | – | > 100 µM | – | > 100 µM | – | > 100 µM | – | > 100 µM | – | > 100 µM | – | > 100 µM | – | > 100 µM
9 | COC(=O)/C=C/c1cc(O)c2c(c1)C(C(=O)OC)C(c1ccc(O)c(O)c1)O2 (centres undefined) | 0.0472 µM | 86.4 µM and > 100 µM | 0.134 µM and 0.075 µM | 54.7 µM and > 100 µM | 0.344 µM and 0.143 µM | 15.4 µM and 9.85 µM | 0.104 µM and 0.0405 µM | > 100 µM | 0.116 µM | 46.2 µM and 23.2 µM | 0.526 µM and 0.0809 µM | > 54.9 µM and 12 µM | 0.17 µM and 0.0633 µM | 36 µM and > 67.1 µM | 1 µM and 0.585 µM | 71.7 µM and 35.7 µM | 1.46 µM and 0.363 µM | 12.3 µM and 12.1 µM | – | > 55 µM and 9.3 µM
10 | CC(C)(C)[OH+][O-].[O-]c1ccc(Cl)cc1C=Nc1ccc(Cl)cc1[O-].[O]=[V] | 17.3 µM | 36.6 µM | 20.4 µM | 66.9 µM | 10.7 µM | 33.5 µM | 21.4 µM | 98.9 µM | 20.2 µM | 69.2 µM | 23 µM | > 100 µM | 5.9 µM | 25.9 µM | 19.6 µM | 46.6 µM | 18 µM | 46.3 µM | 28.7 µM | > 100 µM
11 | COc1cc(/C=C(/C)[N+](=O)[O-])ccc1O | 1.72 µM and 1.8 µM | 3.24 µM and 3.31 µM | 2.05 µM and 2.09 µM | 5.23 µM | 9.45 µM and 2.77 µM | 22.4 µM and 8.89 µM | 1.65 µM and 1.71 µM | 3.12 µM and 3.29 µM | 1.77 µM and 1.87 µM | 3.79 µM and 3.7 µM | 2.86 µM and 2.73 µM | 9.5 µM and 7.93 µM | 1.59 µM and 1.58 µM | 3.27 µM and 3 µM | 8.15 µM and 4.78 µM | 20.4 µM and 16.9 µM | 2.52 µM and 2.22 µM | 7.15 µM and 6.05 µM | 1.62 µM and 1.84 µM | 4.4 µM and 4.28 µM
12 | C=C1C(=O)O[C@H]2[C@H]1CC/C(COC(=O)C(=O)c1c[nH]c3ccccc13)=C\CC[C@@]1(C)O[C@@H]21 | 2.01 µM | 3.61 µM | 3.92 µM | 16 µM | 11.8 µM | 24.9 µM | 1.68 µM | 3.24 µM | 1.86 µM | 3.64 µM | 3.14 µM | 12.7 µM | 1.48 µM | 3.04 µM | 11.9 µM | 24.6 µM | 4.03 µM | 20.7 µM | 2.04 µM | 4.49 µM
13 | CSC(=S)c1ccc(C(=S)SC)cc1 | – | > 100 µM | – | > 100 µM | – | > 100 µM | – | > 100 µM | – | > 100 µM | – | > 100 µM | – | > 100 µM | – | > 100 µM | – | > 100 µM | – | > 100 µM
14 | O=C(Nc1ccc(S(=O)(=O)Nc2nccs2)cc1)c1cccnc1Nc1cccc(Cl)c1 | 14.4 µM | 33.4 µM | 12.9 µM | 28.5 µM | 16.5 µM | 43.5 µM | 12.2 µM | 25.2 µM | 13.2 µM | 26.1 µM | 18 µM | 48.4 µM | 7.31 µM | 19.9 µM | 20.8 µM | 58.8 µM | 16 µM | 32.6 µM | 11.2 µM | 36.5 µM
15 | COc1ccc(C(=O)Cn2c(C(=O)c3ccc(OC)cc3)nc3ccccc32)cc1 | 2.07 µM | > 23.2 µM | 6.15 µM | > 100 µM | 2.08 µM | > 100 µM | 2.36 µM | > 100 µM | 3.16 µM | > 100 µM | 5.85 µM | > 100 µM | 6.42 µM | > 100 µM | 2.96 µM | > 100 µM | 3.73 µM | > 100 µM | > 100 µM | > 100 µM
16 | Oc1c(CN2CCC(N3CCOCC3)CC2)cc(Cc2cc(CN3CCC(N4CCOCC4)CC3)c(O)c3ncccc23)c2cccnc12 | 3.06 µM | 18.7 µM | 2.07 µM | > 100 µM | 0.549 µM | 3.13 µM | 0.383 µM | 48.7 µM | 0.385 µM | 17.6 µM | 1.57 µM | 21.9 µM | 0.466 µM | 4.54 µM | 0.758 µM | 8.96 µM | 0.471 µM | 16.6 µM | 4.16 µM | 36.6 µM
17 | Cn1ccnc1C(=O)/C=C/c1ccc(CC(=O)Nc2ccc(Cl)cc2)cc1 | 2.97 µM | > 25 µM | 2.04 µM | > 25 µM | 7.39 µM | > 25 µM | 1.31 µM | > 25 µM | 1.1 µM | > 25 µM | 3.49 µM | > 25 µM | 1.07 µM | > 25 µM | 8.79 µM | > 25 µM | 1.58 µM | > 25 µM | > 25 µM | > 25 µM
18 | Oc1ccc(C(c2ccccc2)(c2ccccc2)c2ccccc2)cc1 | 10.4 µM | 25 µM | 14 µM | 28.9 µM | 27.2 µM | > 100 µM | 12.9 µM | 26.1 µM | 28.9 µM | > 100 µM | 18.2 µM | 35.9 µM | 24.4 µM | > 100 µM | 16.3 µM | 30 µM | 15.3 µM | 48.1 µM | 17.8 µM | 34.1 µM
19 | Cc1ccc(S(=O)(=O)N/N=C(\CCN2CCCC2)CC(c2ccccc2)c2c(O)c3ccccc3oc2=O)cc1 (centres undefined) | – | > 100 µM | – | > 100 µM | – | > 100 µM | – | > 100 µM | – | > 100 µM | – | > 100 µM | – | > 100 µM | – | > 100 µM | – | > 100 µM | – | > 100 µM
